Patent publication US10413505B1, “Pharmaceutical compositions and methods of using the same” (priority 2017, dated 2019)

What was measured:
[1] = Example 3 plasma pharmacokinetics, normal hepatic function vs hepatic impairment
[2] = Example 2 plasma pharmacokinetics, normal renal function vs severe renal impairment; conditions: all samples in all individuals except four samples in one subject; Example 2
[3] = plasma, subjects with hepatic impairment, single intranasal dose

COC(=O)[C@H]1[C@@H](OC(=O)c2ccccc2)C[C@@H]2CC[C@H]1N2 [norcocaine]
plasma concentration (not measurable, below LLOQ) ([1]; all subjects with normal hepatic function, all time points): < 0.1 ng/mL | plasma concentration, low levels detected ([1]; multiple time points in three Grade B impaired subjects): ≤ 0.31 ng/mL | AUC0→t (Geometric mean) [1, 3]: 0.753 ng·h/mL | AUC0→t (Mean) [1, 3]: 0.950 ng·h/mL | AUC0→t (Median) [1, 3]: 0.788 ng·h/mL | Clast (Geometric mean) [1, 3]: 0.126 ng/mL | Clast (Mean) [1, 3]: 0.127 ng/mL | Clast (Median) [1, 3]: 0.126 ng/mL | Cmax (Geometric mean) [1, 3]: 0.219 ng/mL | Cmax (Mean) [1, 3]: 0.227 ng/mL | Cmax (Median) [1, 3]: 0.212 ng/mL | Tlast (Geometric mean) [1, 3]: 5.24 h | Tlast (Mean) [1, 3]: 6.33 h | Tlast (Median) [1, 3]: 4.00 h | Tmax (Geometric mean) [1, 3]: 1.50 h | Tmax (Mean) [1, 3]: 1.50 h | Tmax (Median) [1, 3]: 1.50 h | t1/2 (Geometric mean) [1, 3]: 5.07 h | t1/2 (Mean) [1, 3]: 6.23 h | t1/2 (Median) [1, 3]: 6.23 h | plasma concentration ([1]; single time point (7 min) in one Grade B subject): 0.354 ng/mL | plasma concentration (below the LLOQ) [2]: < 0.1 ng/mL
